Assay results published in publication PMC8637020, “Drug Repositioning For Allosteric Modulation of VIP and PACAP Receptors” (Frontiers in Endocrinology, 2021).

Assays:
VPAC1 = molecular target: T1, VPAC1 (Homo sapiens, UniProt P32241); test: FAM-VIP competition binding by FACS ([…] VIP binding left at […]) and aequorin calcium mobilization in CHO cells expressing VPAC1; IC50 extrapolated from the partial calcium inhibition; assay type: cell-based
T1 construct: gene VIPR1
T1 sequence (P32241 31-457): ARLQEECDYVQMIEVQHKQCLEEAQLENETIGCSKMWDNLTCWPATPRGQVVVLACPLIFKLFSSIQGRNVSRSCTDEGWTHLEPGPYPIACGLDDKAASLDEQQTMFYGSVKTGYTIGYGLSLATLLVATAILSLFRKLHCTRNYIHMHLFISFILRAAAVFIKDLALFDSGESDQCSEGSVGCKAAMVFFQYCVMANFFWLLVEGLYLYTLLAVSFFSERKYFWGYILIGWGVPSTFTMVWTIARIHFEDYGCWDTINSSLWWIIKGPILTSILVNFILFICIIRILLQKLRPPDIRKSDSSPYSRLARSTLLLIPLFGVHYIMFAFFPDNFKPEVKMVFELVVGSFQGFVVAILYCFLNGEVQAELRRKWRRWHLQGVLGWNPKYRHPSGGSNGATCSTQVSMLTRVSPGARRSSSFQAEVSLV

VPAC2 = molecular target: T2, VPAC2 (Homo sapiens, UniProt P41587); test: FAM-VIP competition binding by FACS ([…] VIP binding left at […]) and aequorin calcium mobilization in CHO cells expressing VPAC2; IC50 extrapolated from the partial calcium inhibition; assay type: cell-based
T2 construct: gene VIPR2
T2 sequence (P41587 24-438): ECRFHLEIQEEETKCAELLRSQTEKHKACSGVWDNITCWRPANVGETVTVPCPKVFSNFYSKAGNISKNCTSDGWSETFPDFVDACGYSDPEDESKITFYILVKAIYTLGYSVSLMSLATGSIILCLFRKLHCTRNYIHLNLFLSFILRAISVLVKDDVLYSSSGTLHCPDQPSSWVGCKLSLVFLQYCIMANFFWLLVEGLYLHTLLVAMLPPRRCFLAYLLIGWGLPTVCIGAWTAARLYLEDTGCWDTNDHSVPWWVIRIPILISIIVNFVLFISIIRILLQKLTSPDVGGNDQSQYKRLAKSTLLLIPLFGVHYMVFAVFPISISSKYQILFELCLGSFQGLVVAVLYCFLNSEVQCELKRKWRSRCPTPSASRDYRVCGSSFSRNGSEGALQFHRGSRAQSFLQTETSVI

CCCSc1nc(N[C@@H]2C[C@H]2c2ccc(F)c(F)c2)c2nnn([C@@H]3C[C@H](OCCO)[C@@H](O)[C@H]3O)c2n1 [ticagrelor]
IC50 (VPAC1): ~50 µM
IC50 (VPAC2): ~20 µM
